Assay results as given in patent US7674813B2, “Heterocyclic sulfonamide inhibitors of beta amyloid production containing an azole” (Wyeth, priority 2004, dated 2010).
pEC50: −log10 of the molar value.

Experiments:
[1] = system: amyloid precursor protein (APP) proteolysis; experiment: Repressor Release Assay (RRA); assay type: cell-based; set-up: key to RRA data (footnote symbols): **: Inactive due to toxicity; however, this compound, at 3-4 μM, reduces Aβ levels by 50% in CHO cells transfected with human APP695 as measured by ELISA without exhibiting toxicity.; ***: Inactive; however, this compound, at 1-4 μM, reduces Aβ levels by 50% in CHO cells transfected with human APP695 as measured by ELISA without exhibiting toxicity; conditions: transfected CHO-K1 cells; for fold induction at 20 µg/mL: Cricetulus griseus, CHO-K1, all compounds tested at 20 μg/mL, luciferase activity over diluent control, read-out: RRA data (Fold increase of APPI)
Protocol: The beta amyloid inhibitory activity of many of the compounds of the present invention has been determined using the Repressor Release Assay (RRA). See, Table 3 below. A compound is considered active in RRA if it leads to at least a 1.5 fold increase in luciferase activity at 20 μg/mL and is non-toxic.
The compound is considered active in RRA if it leads to at least a 1.5 fold increase in APPI as measured by an increase in luciferase activity at 20 μg/mL and is non-toxic. Shuey, D. J., Sheiffele, P., Jones, D., Cockett, M. I., and Quinet, E. M. (1999) Repressor release: a useful tool for monitoring amyloid precursor protein (APP) proteolysis in mammalian cells. Society for Neuroscience Abstracts, Vol. 25, 29th Annual Meeting of Society for Neuroscience, Miami Beach, Fla., Oct. 23-28, 1999.
CHO—K1 cells are cultured in whole DMEM media (DMEM—High Glucose with 10% fetal bovine serum, 1% Non-essential Amino Acids, and 1% Penicillin-Streptomycin) at 37° C. with 5% CO2. Two million cells are plated into 10-cm dishes 24 hrs prior to transfection.
Transient transfections are completed as recommended by Gibco BRL using their Lipofectamine Plus system. First, 6 μg of pRSVO-luc and 6 μg of APP-lacI construct DNA are added to 460 μL Opti-Mem transfection media and incubated with 30 μL Plus reagent for 15 minutes. Then, a lipid mixture of 40 μL Lipofectamine reagent and 460 μL Opti-Mem transfection media is incubated with the DNA-Plus reagent mixture for 15 minutes. During the DNA-lipid incubation, the CHO—K1 cells are washed once and covered in 5.0 mL DMEM media without Penicillin-Streptomycin. The DNA-lipid preparation is then layered onto these cells and incubated at 37° C. overnight.
One and one half million transfected cells per well (100 μL total volume) are plated into sterile, opaque Packard 96-well Cultur-Plates in clear DMEM whole media (DMEM—without phenol red) and incubated at 37° C. with 5% CO2 for 3-5 hours.
Compounds are diluted using two different protocols; one protocol is used for compounds supplied neat (weighed powder in vial) and the other protocol is used for compounds supplied in solution (20 mM in DMSO in 96-well plates). For both protocols, 25 mM Hepes and 25 mM Hepes/1% DMSO are prepared fresh to be used as diluent. The Hepes/DMSO is used as the diluent control on all experimental plates.
The following Table 1 depicts the steps for compound dilution (the last step is the addition of compound to cells/media in tissue culture plate):
Because some compounds arrive in 96-well format at 20 mM, the following Table 2 represents the protocol for their dilution (an average molecular weight of these compounds was used to calculate these dilutions and as above, the last step is the addition of compound to cells/media in tissue culture plate):
Once compounds are diluted, they are applied in duplicate on cells in tissue culture plates (prepared above). Cells are incubated with compound at 37° C. with 5% CO2 for an additional 36-48 hours.
Luciferase assays (LucLite reagent, Packard) are performed and are read on a Packard TopCount instrument. Media is removed from each 96-well plate and replaced with 100 μL PBS per well (with Mg^2+ and Ca^2+). An equal volume (100 μL) of the LucLite lysis/substrate buffer is added to each well and the plates are sealed and mixed in the dark on a rotary shaker for 15-30 minutes at room temperature. Luciferase readings are then taken on the TopCount instrument. Measurements are expressed as relative light units (RLU) and are calculated and analyzed in MS Excel as follows:
Fold Increase: amount of luciferase activity (measured in relative light units) over diluent control.
SEM: standard error of the mean for fold increase.
Activity: A compound is considered active if it results in at least a 1.5 fold increase in luciferase activity at 20 μg/mL.
Toxicity: determined by loss of signal (<0.75 fold increase).

[2] = system: beta amyloid 40; experiment: Aβ40/42 ELISA Assay (Aβ40); assay type: cell-based; conditions: Cricetulus griseus; CHO cells carrying the APP-REP-NL plasmid, 22 hours, sandwich ELISA
Protocol: (§1) Compounds are diluted from DMSO stocks to 2 μM and below in a cell culture medium. Compounds are then applied to CHO cells carrying the APP-REP-NL plasmid [Sudhir et. al, J. Biolog. Chem. 267:25602-25608 (1992)] for a period of 22 hours. After the conditioning period, medium is collected, diluted in assay buffer containing protein, and samples, controls, and synthetic peptide standards are incubated on a prepared ELISA plate. Using a sandwich ELISA with antibodies specifically directed against the carboxyl terminus of beta amyloid 40 or 42 (analogous to the method reported by Haugabook et al., J. Neurosci. Methods 108:171-179 (2001) but using goat anti-mouse IgG1 (source: Southern Biotech) as the anchor, 6E10 as the capture antibody (Source: SENETEK), rabbit antiAβ40 and antiAβ42 (source: QCB) and APL-donkey anti-rabbit IgG (H+L, source: Southern Biotech) as the detection antibody), the effect of the compound treatment on the cellular production of extracellular beta amyloid is quantified. Cells treated with compound are subsequently incubated in cell culture medium containing MTS-formazan. After a short incubation period, MTS/medium containing plates are read in a spectrophotometer to determine the extent to which compound toxicity affected the cell's metabolism and ability to synthesize beta amyloid.
(§2) A. Test Samples: compound samples are supplied as 20 mM stock solutions in a 100% DMSO solution.
(§3) B. APP-REP-NL cells: Qualified cell lines are carried from week to week using 1:100 dilutions and are cultured in DMEM supplemented with 1× antibiotic/antimycotic, 200 ug/ml of G418 antibiotic, and 10% certified fetal calf serum. Cells are also banked in liquid nitrogen. Periodically, beta amyloid production is assessed, and cells are either kept in culture or replaced with progenitors at full expression.
(§4) C. Antibodies: From certified lots that have already been qualified in this assay. Antibodies are stored in small frozen aliquots at −80° C. that are thawed and used.
(§5) A compound is considered active if it has an EC50 for Aβ40 reduction of <100 μM and no toxicity at doses in the vicinity of the EC50.

[3] = system: beta amyloid 42; experiment: Aβ40/42 ELISA Assay (Aβ42); assay type: cell-based; conditions: CHO cells carrying the APP-REP-NL plasmid, 22 hours, sandwich ELISA; for pEC50: Cricetulus griseus
Protocol: as §1, §2, §3, §4, §5

| Structure (SMILES) | melting point | pEC50 [2] | pEC50 [3] | fold induction at 20 µg/mL [1] | RRA data (footnote symbols) ([1]; tested at 20 μg/mL) | Effect on Aβ42 production [3] |
| --- | --- | --- | --- | --- | --- | --- |
| CCC(CC)C(NS(=O)(=O)c1ccc(Cl)s1)c1ccnn1Cc1ccc(O)cc1 (stereo not drawn) [Example 8, 5-Chloro-N-{2-ethyl-1-[1-(4-hydroxybenzyl)-1H-pyrazol-5-yl]butyl}thiophene-2-sulfonamide] | 90 to 92 °C | – | – | 4.5 | – | – |
| CCC(CC)C(NS(=O)(=O)c1ccc(Cl)s1)c1ccnn1S(=O)(=O)c1ccc(C)cc1 (stereo not drawn) [Example 9, 5-Chloro-N-(2-ethyl-1-{1-[(4-methylphenyl)sulfonyl]-1H-pyrazol-5-yl}butyl)thiophene-2-sulfonamide] | 146 to 148 °C | 5.52 | 5.35 | – | *** | – |
| CCC(CC)C(NS(=O)(=O)c1ccc(Cl)s1)c1ncnn1Cc1ccc(OC)cc1 (stereo not drawn) [Example 21, 5-Chloro-N-{2-ethyl-1-[1-(4-methoxybenzyl)-1H-1,2,4-triazol-5-yl]butyl}thiophene-2-sulfonamide] | 136 to 137 °C | 5.85 | 5.51 | 10.8 | – | – |
| CC(C)C(NS(=O)(=O)c1ccc(Cl)s1)c1ncnn1Cc1ccccc1 (stereo not drawn) [Example 23, N-[1-(1-Benzyl-1H-1,2,4-triazol-5-yl)-2-methylpropyl]-5-chlorothiophene-2-sulfonamide] | 138 to 139 °C | 5.28 | 4.88 | 1.8 | – | – |
| Cc1ccc(Cn2ncnc2C(NS(=O)(=O)c2ccc(Cl)s2)C(C)C)cc1 (stereo not drawn) [Example 24, 5-Chloro-N-{2-methyl-1-[1-(4-methylbenzyl)-1H-1,2,4-triazol-5-yl]propyl}thiophene-2-sulfonamide] | 124 to 125 °C | 5.22 | 4.96 | 1.8 | – | – |
| CC(NS(=O)(=O)c1ccc(Cl)s1)c1ncnn1Cc1ccccc1 (stereo not drawn) [Example 25, N-[1-(1-Benzyl-1H-1,2,4-triazol-5-yl)ethyl]-5-chlorothiophene-2-sulfonamide] | 123 to 124 °C | 4.37 | 4.05 | 6.6 | – | – |
| Cc1ccc(Cn2ncnc2C(C)NS(=O)(=O)c2ccc(Cl)s2)cc1 (stereo not drawn) [Example 26, 5-Chloro-N-{1-[1-(4-methylbenzyl)-1H-1,2,4-triazol-5-yl]ethyl}thiophene-2-sulfonamide] | 116 to 117 °C | 5.02 | 4.81 | 5.6 | – | – |

Continued, in another order:

| melting point | pEC50 [2] | pEC50 [3] | Structure (SMILES) | fold induction at 20 µg/mL [1] | RRA data (footnote symbols) ([1]; tested at 20 μg/mL) | Effect on Aβ42 production [3] |
| --- | --- | --- | --- | --- | --- | --- |
| 103 to 104 °C | 5.57 | 5.21 | CCC(CC)C(NS(=O)(=O)c1ccc(Cl)s1)c1ncnn1Cc1ccc(C)cc1 (stereo not drawn) [Example 27, 5-Chloro-N-{2-ethyl-1-[1-(4-methylbenzyl)-1H-1,2,4-triazol-5-yl]butyl}thiophene-2-sulfonamide] | 13 | – | – |
| 116 to 119.6 °C | 4.88 | – | CCC(CC)C(NS(=O)(=O)c1cc(Cl)c(Cl)s1)c1ccnn1-c1ccccc1 (stereo not drawn) [Example 38, 4,5-Dichloro-N-[2-ethyl-1-(1-phenyl-1H-pyrazol-5-yl)butyl]thiophene-2-sulfonamide] | – | – | increase |
| 56 to 66 °C | 4.59 | – | CCC(CC)C(NS(=O)(=O)c1ccc(Cl)c(Cl)c1)c1ccnn1-c1ccccc1 (stereo not drawn) [Example 39, 3,4-Dichloro-N-[2-ethyl-1-(1-phenyl-1H-pyrazol-5-yl)butyl]benzenesulfonamide] | – | – | increase |
| 120 to 120.7 °C | 5.39 | 5.12 | CCC(CC)C(NS(=O)(=O)c1ccc(Br)s1)c1ccnn1-c1ccccc1 (stereo not drawn) [Example 40, 5-Bromo-N-[2-ethyl-1-(1-phenyl-1H-pyrazol-5-yl)butyl]thiophene-2-sulfonamide] | – | – | – |
| 37.8 to 54 °C | 4.32 | – | CCC(CC)C(c1ccnn1-c1ccccc1)N(C)S(=O)(=O)c1ccc(C#N)cc1 (stereo not drawn) [Example 43, 4-Cyano-N-[2-ethyl-1-(1-phenyl-1H-pyrazol-5-yl)butyl]-N-methylbenzenesulfonamide] | – | – | increase |
| 99 to 100.4 °C | 4.47 | – | CCC(CC)C(c1ccnn1-c1ccccc1)N(C)S(=O)(=O)c1cc(Cl)c(Cl)s1 (stereo not drawn) [Example 45, 4,5-Dichloro-N-[2-ethyl-1-(1-phenyl-1H-pyrazol-5-yl)butyl]-N-methylthiophene-2-sulfonamide] | – | – | increase |
| 125.8 to 127.6 °C | 4.15 | – | CCC(CC)C(c1ccnn1-c1ccccc1)N(C)S(=O)(=O)c1ccc(Cl)s1 (stereo not drawn) [Example 46, 5-Chloro-N-[2-ethyl-1-(1-phenyl-1H-pyrazol-5-yl)butyl]-N-methylthiophene-2-sulfonamide] | – | – | increase |
| 102.1 to 104.1 °C | 4.21 | – | CCC(CC)C(c1ccnn1-c1ccccc1)N(C)S(=O)(=O)c1ccc(Cl)c(Cl)c1 (stereo not drawn) [Example 47, 3,4-Dichloro-N-[2-ethyl-1-(1-phenyl-1H-pyrazol-5-yl)butyl]-N-methylbenzenesulfonamide] | – | – | increase |
| 115.6 to 118 °C | 4.19 | – | CCC(CC)C(c1ccnn1-c1ccccc1)N(C)S(=O)(=O)c1ccc(Br)s1 (stereo not drawn) [Example 48, 5-Bromo-N-[2-ethyl-1-(1-phenyl-1H-pyrazol-5-yl)butyl]-N-methylthiophene-2-sulfonamide] | – | – | increase |
